Experimental data from PubChem BioAssay (NCI).
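Where inhibition never reached the appropriate level, the endpoint shown equals the highest concentration tested. Otherwise, values were interpolated linearly from a five-concentration, 48-hour dose response in 96-well plates. TGI: total growth inhibition.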

Columns and labels:
Experiment in all cases: NCI-60 cell line screen, 48 h
[1] = test system: PC-3 prostate
[2] = test system: SK-MEL-2 melanoma
[3] = test system: KM12 colon
[4] = test system: HL-60(TB) leukemia
[5] = test system: CCRF-CEM leukemia
[6] = test system: HCT-15 colon
[7] = test system: SF-539 CNS
[8] = test system: OVCAR-8 ovarian
[9] = test system: HOP-92 NSCLC
[10] = test system: HS 578T breast
[11] = test system: NCI-H522 lung
[12] = test system: K-562 leukemia
[13] = test system: T-47D breast
[14] = test system: LOX IMVI melanoma
[15] = test system: SK-OV-3 ovarian
[16] = test system: IGROV1 ovarian
[17] = test system: MALME-3M melanoma
[18] = test system: UO-31 renal
[19] = test system: SNB-75 CNS
[20] = test system: SF-295 CNS
[21] = test system: BT-549 breast
[22] = test system: SW-620 colon
[23] = test system: SN12C renal
[24] = test system: SNB-19 CNS
[25] = test system: HCC-2998 colon
[26] = test system: SF-268 CNS
[27] = test system: A498 renal
[28] = test system: ACHN renal
[29] = test system: 786-0 renal
[30] = test system: U251 CNS
[31] = test system: MCF7 breast
[32] = test system: OVCAR-5 ovarian
[33] = test system: OVCAR-4 ovarian
[34] = test system: MDA-MB-435
[35] = test system: EKVX NSCLC
[36] = test system: CAKI-1 renal
[37] = test system: MDA-MB-231 breast
[38] = test system: NCI-H226 lung
[39] = test system: NCI-H23 lung
[40] = test system: HCT-116 colon
[41] = test system: MDA-N
[42] = test system: SK-MEL-28 melanoma
[43] = test system: HOP-62 NSCLC
[44] = test system: NCI-H460 lung
[45] = test system: UACC-257 melanoma
[46] = test system: A549 NSCLC
[47] = test system: COLO 205 colon
[48] = test system: M14 melanoma
[49] = test system: OVCAR-3 ovarian
[50] = test system: RXF 393 renal
[51] = test system: HT29 colon
[52] = test system: TK-10 renal
[53] = test system: RPMI-8226 leukemia
[54] = test system: MOLT-4 leukemia
[55] = test system: SK-MEL-5 melanoma
[56] = test system: NCI/ADR-RES ovarian
[57] = test system: UACC-62 melanoma
[58] = test system: DU-145 prostate
[59] = test system: SR leukemia

## CCCCCCCCCCCCCCCCOCC(Cl)COP(=O)(O)OP(=O)(O)OCC1OC(n2cc(C)c(=O)[nH]c2=O)CC1O (centres undefined)
[1]
  TGI: 62.9 µM
[2]
  TGI: > 100 µM
[3]
  TGI: > 100 µM
[4]
  TGI: > 100 µM
[5]
  TGI: > 100 µM
[6]
  TGI: > 100 µM
[7]
  TGI: > 100 µM
[8]
  TGI: > 100 µM
[9]
  TGI: > 100 µM
[10]
  TGI: 86.4 µM
[11]
  TGI: > 100 µM
[12]
  TGI: > 100 µM
[13]
  TGI: > 100 µM
[14]
  TGI: > 100 µM
[15]
  TGI: > 100 µM
[16]
  TGI: > 100 µM
[17]
  TGI: > 100 µM
[18]
  TGI: > 100 µM
[19]
  TGI: 71.8 µM
[20]
  TGI: > 100 µM
[21]
  TGI: > 100 µM
[22]
  TGI: > 100 µM
[23]
  TGI: > 100 µM
[24]
  TGI: > 100 µM
[25]
  TGI: > 100 µM
[26]
  TGI: > 100 µM
[27]
  TGI: > 100 µM
[28]
  TGI: > 100 µM
[29]
  TGI: > 100 µM
[30]
  TGI: > 100 µM
[31]
  TGI: > 100 µM
[32]
  TGI: > 100 µM
[33]
  TGI: > 100 µM
[34]
  TGI: > 100 µM
[35]
  TGI: > 100 µM
[36]
  TGI: > 100 µM
[37]
  TGI: > 100 µM
[38]
  TGI: 80.5 µM
[39]
  TGI: > 100 µM
[40]
  TGI: > 100 µM
[41]
  TGI: > 100 µM
[42]
  TGI: > 100 µM
[43]
  TGI: > 100 µM
[44]
  TGI: > 100 µM
[45]
  TGI: > 100 µM
[46]
  TGI: > 100 µM
[47]
  TGI: > 100 µM
[48]
  TGI: > 100 µM
[49]
  TGI: > 100 µM
[50]
  TGI: > 100 µM
[51]
  TGI: > 100 µM
[52]
  TGI: > 100 µM
[53]
  TGI: > 100 µM
[54]
  TGI: > 100 µM
[55]
  TGI: > 100 µM
[56]
  TGI: > 100 µM

## CN(C)CCN=C1Nc2ccccc2C(=S)N2CSCC12 (centres undefined)
[1]
  TGI: > 100 µM
[2]
  TGI: > 100 µM
[3]
  TGI: > 100 µM
[5]
  TGI: > 100 µM
[6]
  TGI: > 100 µM
[8]
  TGI: > 100 µM
[10]
  TGI: > 100 µM
[11]
  TGI: > 100 µM
[12]
  TGI: > 100 µM
[13]
  TGI: > 100 µM
[14]
  TGI: > 100 µM
[57]
  TGI: > 100 µM
[15]
  TGI: > 100 µM
[16]
  TGI: > 100 µM
[17]
  TGI: > 100 µM
[18]
  TGI: > 100 µM
[19]
  TGI: > 100 µM
[20]
  TGI: > 100 µM
[21]
  TGI: > 100 µM
[58]
  TGI: > 100 µM
[22]
  TGI: > 100 µM
[23]
  TGI: > 100 µM
[24]
  TGI: > 100 µM
[25]
  TGI: > 100 µM
[26]
  TGI: > 100 µM
[27]
  TGI: > 100 µM
[28]
  TGI: > 100 µM
[29]
  TGI: > 100 µM
[30]
  TGI: > 100 µM
[31]
  TGI: > 100 µM
[32]
  TGI: > 100 µM
[33]
  TGI: > 100 µM
[34]
  TGI: > 100 µM
[35]
  TGI: > 100 µM
[36]
  TGI: > 100 µM
[37]
  TGI: > 100 µM
[38]
  TGI: > 100 µM
[40]
  TGI: > 100 µM
[41]
  TGI: > 100 µM
[42]
  TGI: > 100 µM
[43]
  TGI: > 100 µM
[44]
  TGI: > 100 µM
[45]
  TGI: > 100 µM
[46]
  TGI: > 100 µM
[47]
  TGI: > 100 µM
[48]
  TGI: > 100 µM
[59]
  TGI: > 100 µM
[49]
  TGI: > 100 µM
[50]
  TGI: > 100 µM
[51]
  TGI: > 100 µM
[52]
  TGI: > 100 µM
[53]
  TGI: > 100 µM
[54]
  TGI: > 100 µM
[55]
  TGI: > 100 µM
[56]
  TGI: > 100 µM

## O=P1(Oc2ccccc2)N(CCCl)CCN1c1ccccc1 (centres undefined)
[1]
  TGI: > 100 µM
[2]
  TGI: > 100 µM
[3]
  TGI: > 100 µM
[4]
  TGI: > 100 µM
[5]
  TGI: > 100 µM
[6]
  TGI: > 100 µM
[7]
  TGI: > 100 µM
[8]
  TGI: > 100 µM
[9]
  TGI: > 100 µM
[10]
  TGI: > 100 µM
[11]
  TGI: > 100 µM
[12]
  TGI: > 100 µM
[13]
  TGI: > 100 µM
[14]
  TGI: > 100 µM
[57]
  TGI: > 100 µM
[15]
  TGI: > 100 µM
[16]
  TGI: > 100 µM
[17]
  TGI: > 100 µM
[18]
  TGI: > 100 µM
[19]
  TGI: > 100 µM
[20]
  TGI: > 100 µM
[58]
  TGI: > 100 µM
[22]
  TGI: > 100 µM
[23]
  TGI: > 100 µM
[24]
  TGI: > 100 µM
[25]
  TGI: > 100 µM
[26]
  TGI: > 100 µM
[27]
  TGI: > 100 µM
[28]
  TGI: > 100 µM
[29]
  TGI: > 100 µM
[30]
  TGI: > 100 µM
[31]
  TGI: > 100 µM
[32]
  TGI: > 100 µM
[33]
  TGI: > 100 µM
[34]
  TGI: > 100 µM
[35]
  TGI: > 100 µM
[36]
  TGI: > 100 µM
[37]
  TGI: > 100 µM
[38]
  TGI: > 100 µM
[39]
  TGI: > 100 µM
[40]
  TGI: > 100 µM
[41]
  TGI: > 100 µM
[42]
  TGI: > 100 µM
[43]
  TGI: > 100 µM
[44]
  TGI: > 100 µM
[45]
  TGI: > 100 µM
[46]
  TGI: > 100 µM
[47]
  TGI: > 100 µM
[48]
  TGI: > 100 µM
[59]
  TGI: > 100 µM
[49]
  TGI: > 100 µM
[50]
  TGI: > 100 µM
[51]
  TGI: > 100 µM
[52]
  TGI: > 100 µM
[53]
  TGI: > 100 µM
[54]
  TGI: > 100 µM
[55]
  TGI: > 100 µM
[56]
  TGI: > 100 µM
